Test results as given in patent US20240287052A1, “NOVEL OXAZOLE DERIVATIVE AND PHARMACEUTICAL COMPOSITION FOR PREVENTING OR TREATING ALLERGIC DISEASES COMPRISING THE SAME” (AZCURIS CO., LTD., priority 2021, published 2024).
Read-outs that look alike come from different tables or passages of the source.

Legend:
[1] = system: Human liver cancer cell line HepG2 cells; assay: Cellular viability, WST-8 assay, without or with human liver microsomes; assay type: cell-based; settings: for Cellular viability (%) (+) microsome: HepG2, with human liver microsomes; for Cellular viability (%) (−) microsome: HepG2, without human liver microsomes
Method: Human liver cancer cell line HepG2 cells were cultured in a medium (high glucose Dulbecco's Modified Eagle Medium, DMEM, HyClone) supplemented with 10% fetal bovine serum (FBS, HyClone) and 1% antibiotic in a thermostat maintained at 37° C. with 5% CO2.
HepG2 cells, which are adherent cells, were […] or presence of human liver microsomes (Gibco) and NADPH regenerating system.
Cell cultures were exchanged using […] of medium (high glucose Dulbecco's Modified Eagle Medium, DMEM, HyClone) and incubated for 24 hours.
After adding 10 μL of WST-8 (abCam), the absorbance was obtained at 460 nm after 5 seconds of orbital shaking with a microplate reader (Tecan, Spark©) 2 hours later.
The mean of the three values obtained in triplicate was calculated and expressed as % cellular viability compared to vehicle treatment.

IL33 and ST2 binding = target: T1, IL33 and ST2 binding (Homo sapiens, UniProt O95760);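 also: plate ELISA with coated Flag-tagged human IL-33 and His-tagged human ST2, bound ST2 detected by anti-His HRP and TMB absorbance at 450 nm, 2 h compound incubation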
T1 sequence (O95760 112-270 limits assumed): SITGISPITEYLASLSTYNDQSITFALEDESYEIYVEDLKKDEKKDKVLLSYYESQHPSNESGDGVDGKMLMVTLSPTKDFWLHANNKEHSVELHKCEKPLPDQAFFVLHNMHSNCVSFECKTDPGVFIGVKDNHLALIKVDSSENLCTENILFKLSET

[2] = system: IL-6 secretion in the human mast cell line HMC 1.1; assay: IL-6 production inhibition assay (IL-33 stimulated HMC 1.1 cells, IL-6 ELISA); assay type: cell-based; settings: for inhibition at 1 µM: 1 μM compound, read-out: Inhibition of hIL-6 production (%) 1 μM; for inhibition at 10 µM: 10 μM compound, read-out: Inhibition of hIL-6 production (%) 10 μM
Method: Human mast cell line HMC 1.1 cells were cultured in medium (Iscove's Modified Dulbecco's Medium, IMDM, HyClone) supplemented with […] fetal bovine serum (FBS, HyClone) and 1% antibiotics and maintained at 37° C. with 5% CO2.
HMC 1.1 cells, which are non-adherent cells, were cultured in 0.5 mL of culture medium containing 200 nM of IL-33 wild type human recombinant protein after centrifugation of cells in culture flasks filled to […] capacity and incubated for 24 hours with […], 10 μM, 25 μM, 30 μM or 50 μM of Example compound.
Medium was harvested by centrifugation (2,000×g, 5 min) and stored at −80° C. until ELISA assay.
Experiments were performed according to the protocol using the Human IL-6 ELISA kit (abCam).
The average of the three values obtained in triplicate was calculated and the amount of IL-6 secretion was measured using a standard curve. The measured IL-6 secretion was converted to 100% based on the vehicle treatment sample value to obtain the vehicle %.

| SMILES | inhibition (IL33 and ST2 binding; 30 µM) | inhibition (IL33 and ST2 binding; 100 µM) | inhibition at 1 µM ([2]; 24 hours) | inhibition at 10 µM ([2]; 24 hours) | also measured |
| --- | --- | --- | --- | --- | --- |
| CN(C)CCNC(=O)c1nc(-c2ccc(F)c(F)c2)oc1-c1ccccc1 [Compound 231, 2-(3,4-Difluorophenyl)-N-(2-(dimethylamino)ethyl)-5-phenyloxazole-4-carboxamide] | -8% | 5% |  |  | Cellular viability (%) (+) microsome ([1]; at 50 μM): 29 at %; Cellular viability (%) (−) microsome ([1]; at 50 μM): 17 at % |
| CCCNC(=O)c1nc(-c2ccc(C(F)(F)F)cc2)oc1-c1cccnc1 [Compound 308, N-Propyl-5-(pyridin-3-yl)-2-(4-(trifluoromethyl)phenyl)oxazole-4-carboxamide] |  |  | 56% | 62% | Cellular viability (%) (+) microsome ([1]; at 160 μM): 29 at %; Cellular viability (%) (−) microsome ([1]; at 160 μM): 27 at % |
| CCNC(=O)c1nc(-c2ccc(C(F)(F)F)cc2)oc1-c1cc(O)c(O)c(O)c1 [Compound 323, N-Ethyl-2-(4-(trifluoromethyl)phenyl)-5-(3,4,5-trihydroxyphenyl)oxazole-4-carboxamide] |  |  | 45% | 84% | Cellular viability (%) (+) microsome ([1]; at 160 μM): 77 at %; Cellular viability (%) (−) microsome ([1]; at 160 μM): 63 at % |
| CCCNC(=O)c1nc(-c2ccc(SC)cc2)oc1-c1ccccc1 [Compound 317, 2-(4-(Methylthio)phenyl)-5-phenyl-N-propyloxazole-4-carboxamide] |  |  | 44% | 43% | Cellular viability (%) (+) microsome ([1]; at 160 μM): 89 at %; Cellular viability (%) (−) microsome ([1]; at 160 μM): 47 at % |
| CN(C)CCNC(=O)c1nc(-c2ccc(OC(F)(F)F)cc2)oc1-c1ccccc1 [Compound 203, N-(2-(Dimethylamino)ethyl)-5-phenyl-2-(4-(trifluoromethoxy)phenyl)oxazole-4-carboxamide] | -9% | 14% |  |  | Cellular viability (%) (+) microsome ([1]; at 50 μM): 30 at %; Cellular viability (%) (−) microsome ([1]; at 50 μM): 19 at % |
| CCOC(=O)c1nc(-c2ccc(C(F)(F)F)cc2)oc1-c1ccccc1N [Compound 99, Ethyl 5-(2-aminophenyl)-2-(4-(trifluoromethyl)phenyl)oxazole-4-carboxylate] |  |  |  |  | Cellular viability (%) (+) microsome ([1]; at 25 μM): 96 at %; Cellular viability (%) (−) microsome ([1]; at 25 μM): 79 at % |
| CCCNC(=O)c1nc(-c2ccc(C(F)(F)F)cc2)oc1-c1ccccc1OC(F)(F)F [Compound 306, N-Propyl-5-(2-(trifluoromethoxy)phenyl)-2-(4-(trifluoromethyl)phenyl)oxazole-4-carboxamide] | 38% |  | -38% | 45% |  |
| CSc1ccc(-c2oc(-c3ccc(C(F)(F)F)cc3)nc2C(=O)NCCN2CCN(C(C)=O)CC2)cc1 [Compound 194, N-(2-(4-acetylpiperazin-1-yl)ethyl)-5-(4-(methylthio)phenyl)-2-(4-(trifluoromethyl)phenyl)oxazole-4-carboxamide] | 41% |  | 44% | 68% |  |
| CN1CCN(CCNC(=O)c2nc(-c3ccc(C(F)(F)F)cc3)oc2-c2ccccc2[N+](=O)[O-])CC1 [Compound 153, N-(2-(4-Methylpiperazin-1-yl)ethyl)-5-(2-nitrophenyl)-2-(4-(trifluoromethyl)phenyl)oxazole-4-carboxamide] | 92% | 95% |  |  | Cellular viability (%) (+) microsome ([1]; at 50 μM): 36 at %; Cellular viability (%) (−) microsome ([1]; at 50 μM): 19 at % |
| CC(=O)NCCNC(=O)c1nc(-c2ccc(C(F)(F)F)cc2)oc1-c1ccccc1[N+](=O)[O-] [Compound 285, N-(2-acetamidoethyl)-5-(2-nitrophenyl)-2-(4-(trifluoromethyl)phenyl)oxazole-4-carboxamide] | 73% | 72% |  |  | Cellular viability (%) (+) microsome ([1]; at 30 μM): 59 at %; Cellular viability (%) (−) microsome ([1]; at 30 μM): 54 at % |
| COc1ccc(-c2nc(C(=O)NCCN(C)C)c(-c3ccc([N+](=O)[O-])cc3)o2)cc1 [Compound 217, N-(2-(Dimethylamino)ethyl)-2-(4-methoxyphenyl)-5-(4-nitrophenyl)oxazole-4-carboxamide] | -38% | -51% |  |  | Cellular viability (%) (+) microsome ([1]; at 100 μM): 34 at %; Cellular viability (%) (−) microsome ([1]; at 100 μM): 19 at % |
| CCOC(=O)c1nc(-c2cc(F)cc(F)c2)oc1-c1ccccc1[N+](=O)[O-] [Compound 74, Ethyl 2-(3,5-difluorophenyl)-5-(2-nitrophenyl)oxazole-4-carboxylate] |  |  |  |  | Cellular viability (%) (+) microsome ([1]; at 45 μM): 96 at %; Cellular viability (%) (−) microsome ([1]; at 45 μM): 101 at % |
| CCOC(=O)c1nc(-c2ccc(C(F)(F)F)cc2)oc1-c1cc(OC)c(OC)c(OC)c1 [Compound 49, Ethyl 2-(4-(trifluoromethyl)phenyl)-5-(3,4,5-trimethoxyphenyl)oxazole-4-carboxylate] | -65% |  | -2% | 16% |  |
| CCNC(=O)c1nc(-c2ccc(OC)cc2)oc1-c1ccccc1 [Compound 312, N-Ethyl-2-(4-methoxyphenyl)-5-phenyloxazole-4-carboxamide] | -47% |  | 66% | 81% |  |
| CN(C)CCN1CCN(C(=O)c2nc(-c3ccc(Cl)cc3)oc2-c2ccccc2[N+](=O)[O-])CC1 [Compound 248, (2-(4-Chlorophenyl)-5-(2-nitrophenyl)oxazol-4-yl)(4-(2-(dimethylamino)ethyl)piperazin-1-yl)methanone] | 33% | 63% |  |  | Cellular viability (%) (+) microsome ([1]; at 50 μM): 31 at %; Cellular viability (%) (−) microsome ([1]; at 50 μM): 19 at % |
| CCOC(=O)c1coc(-c2ccc(C(F)(F)F)cc2)n1 [Compound 6, Ethyl 2-(4-(trifluoromethyl)phenyl)oxazole-4-carboxylate] |  | 110% |  |  | Cellular viability (%) (+) microsome ([1]; at 45 μM): 99 at %; Cellular viability (%) (−) microsome ([1]; at 45 μM): 66 at % |
| CCOC(=O)c1nc(-c2ccc(C(F)(F)F)cc2)oc1-c1ccccc1[N+](=O)[O-] [Compound 32, Ethyl 5-(2-nitrophenyl)-2-(4-(trifluoromethyl)phenyl)oxazole-4-carboxylate] | 107% | 108% |  |  | Cellular viability (%) (+) microsome ([1]; at 25 μM): 95 at %; Cellular viability (%) (−) microsome ([1]; at 25 μM): 81 at % |
| COc1cccc(-c2oc(-c3ccc(C(F)(F)F)cc3)nc2C(=O)NCCN2CCN(C(C)=O)CC2)c1 [Compound 198, N-(2-(4-acetylpiperazin-1-yl)ethyl)-5-(3-methoxyphenyl)-2-(4-(trifluoromethyl)phenyl)oxazole-4-carboxamide] | 5% |  | 62% | 77% |  |
| CCNC(=O)c1nc(-c2ccc(C(F)(F)F)cc2)oc1-c1cc(O)cc(O)c1 [Compound 322, 5-(3,5-Dihydroxyphenyl)-N-ethyl-2-(4-(trifluoromethyl)phenyl)oxazole-4-carboxamide] |  |  | 86% | 73% | Cellular viability (%) (+) microsome ([1]; at 160 μM): 90 at %; Cellular viability (%) (−) microsome ([1]; at 160 μM): 63 at % |
| CCNC(=O)c1nc(-c2ccc(C(F)(F)F)cc2)oc1-c1cccc(OC)c1 [Compound 298, N-Ethyl-5-(3-methoxyphenyl)-2-(4-(trifluoromethyl)phenyl)oxazole-4-carboxamide] | 87% |  | 70% | 75% | inhibition at 0.1 µM ([2]; 0.1 μM compound, 24 hours, read-out: Inhibition of hIL-6 production (%) 0.1 μM): 12%; EC50 ([2]; read-out: Inhibition of hIL-6 production EC50): 640 nM |
| O=C(NCCCn1ccnc1)c1nc(-c2ccc(C(F)(F)F)cc2)oc1-c1ccccc1[N+](=O)[O-] [Compound 158, N-(3-(1H-Imidazol-1-yl)propyl)-5-(2-nitrophenyl)-2-(4-(trifluoromethyl)phenyl)oxazole-4-carboxamide] | 31% | 26% |  |  | Cellular viability (%) (+) microsome ([1]; at 50 μM): 17 at %; Cellular viability (%) (−) microsome ([1]; at 50 μM): 17 at % |
| CC(=O)N1CCN(CCNC(=O)c2nc(-c3ccccc3C(F)(F)F)oc2-c2ccccc2)CC1 [Compound 128, N-(2-(4-acetylpiperazin-1-yl)ethyl)-5-phenyl-2-(2-(trifluoromethyl)phenyl)oxazole-4-carboxamide] | -28% |  | 66% | 80% |  |
